From ChEMBL document CHEMBL2057100, “The optimization of pyridazinone series of glucan synthase inhibitors” (Bioorg Med Chem Lett, 2012)
Converted amounts (≈) assume the structure as drawn. The source made the active and inactive calls. The calls are words filed in the database; no cut-off is given here.

How the values were obtained:
Beta-1,3-glucan synthase = molecular target: T1, Beta-1,3-glucan synthase (Candida albicans, UniProt O13383); test: Inhibition of 1,3-beta-D-glucan synthase in Candida albicans BWP17 membranes; format: cell membranes
T1 sequence (O13383 whole entry): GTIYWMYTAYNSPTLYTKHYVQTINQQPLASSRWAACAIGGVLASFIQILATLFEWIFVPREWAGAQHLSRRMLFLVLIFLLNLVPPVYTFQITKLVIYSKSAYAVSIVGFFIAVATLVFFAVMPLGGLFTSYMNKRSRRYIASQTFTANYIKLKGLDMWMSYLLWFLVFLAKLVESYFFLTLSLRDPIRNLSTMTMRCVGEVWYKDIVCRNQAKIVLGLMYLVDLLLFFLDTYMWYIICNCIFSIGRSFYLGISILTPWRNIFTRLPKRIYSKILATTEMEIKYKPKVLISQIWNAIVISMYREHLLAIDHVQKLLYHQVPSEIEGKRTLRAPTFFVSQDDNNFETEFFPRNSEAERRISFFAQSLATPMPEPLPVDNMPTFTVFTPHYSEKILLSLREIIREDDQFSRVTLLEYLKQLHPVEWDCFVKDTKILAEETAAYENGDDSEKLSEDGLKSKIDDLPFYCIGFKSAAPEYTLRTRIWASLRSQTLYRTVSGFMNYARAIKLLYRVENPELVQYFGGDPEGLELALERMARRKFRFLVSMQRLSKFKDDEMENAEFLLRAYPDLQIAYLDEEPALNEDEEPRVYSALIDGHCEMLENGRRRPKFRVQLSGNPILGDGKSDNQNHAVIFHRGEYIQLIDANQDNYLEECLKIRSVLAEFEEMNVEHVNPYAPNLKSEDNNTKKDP

Nakaseomyces glabratus = test: Antifungal activity against Candida glabrata C624 by broth dilution method; format: functional; conditions: read-out: MIC100
Candida albicans [1] = test: Antifungal activity against Candida albicans C693 by broth dilution method; format: functional; conditions: read-out: MIC100
[2] = AUC (0 to 6 hrs) in rat at 10 mg/kg, po; format: ADME, organism-based, Plasma; parameters: time < 6 hr, dose 10 mg/kg, route oral; conditions: plasma
Aspergillus fumigatus [3] = test: Antifungal activity against Aspergillus fumigatus ND158 by broth dilution method; format: functional; conditions: read-out: MEC
[4] = Cmax in rat at 10 mg/kg, po; format: ADME, organism-based; parameters: dose 10 mg/kg, route oral; conditions: in vivo
Candida albicans [5] = test: Antifungal activity against Candida albicans C697 infected in normal mouse assessed as reduction of fungal burden in kidney at 100 mg/kg, ip; format: functional, organism-based; parameters: dose 100 mg/kg
Candida albicans [6] = test: Antifungal activity against Candida albicans C697 infected in immune compromised mouse assessed as reduction of fungal burden in kidney at 100 mg/kg, ip; format: functional, organism-based; parameters: dose 100 mg/kg
Aspergillus fumigatus [7] = test: Induction of morphological changes in Aspergillus fumigatus ND158 assessed as induction of truncated and highly branched hyphae; format: functional, organism-based

IC50 (Beta-1,3-glucan synthase) | MIC (Nakaseomyces glabratus) | MIC (Candida albicans [1]) | AUC(0-t) at 6 h [2] | Cmax [4] | SMILES | minimal effective concentration (Aspergillus fumigatus [3]) | Activity (Candida albicans [5]) | Activity (Candida albicans [6]) | Activity (Aspergillus fumigatus [7])
1650 nM | 0.78 µg/mL (≈ 1.43 µM) | 25 µg/mL (≈ 45.9 µM) |  |  | O=c1c(OC2CCC(O)C2)c(N2CCN(S(=O)(=O)Cc3ccccc3)CC2)cnn1-c1cccc(Cl)c1 (stereo not drawn) |  |  |  | 
378 nM | < 0.02 µg/mL | 0.39 µg/mL (≈ 0.737 µM) |  |  | O=c1c(OC2CCCC2)c(N2CCN(S(=O)(=O)Cc3ccccc3)CC2)cnn1-c1cccc(Cl)c1 |  |  |  | 
1470 nM | < 0.02 µg/mL | 0.78 µg/mL (≈ 1.44 µM) |  |  | O=c1c(OC2CCCCC2)c(N2CCN(S(=O)(=O)Cc3ccccc3)CC2)cnn1-c1cccc(Cl)c1 |  |  |  | 
142 nM | 0.31 µg/mL (≈ 0.55 µM) | 0.63 µg/mL (≈ 1.12 µM) |  |  | O=c1c(OC2CCCC2)c(N2CCN(S(=O)(=O)Cc3ccc(Cl)cc3)CC2)cnn1-c1cccc(Cl)c1 |  |  |  | 
110 nM | 0.05 µg/mL (≈ 0.0914 µM) | 1.56 µg/mL (≈ 2.85 µM) |  |  | O=c1c(OC2CCCC2)c(N2CCN(S(=O)(=O)Cc3ccc(F)cc3)CC2)cnn1-c1cccc(Cl)c1 |  |  |  | 
917 nM | 0.02 µg/mL (≈ 0.0367 µM) | 3.13 µg/mL (≈ 5.74 µM) |  |  | O=c1c(OC2CCOCC2)c(N2CCN(S(=O)(=O)Cc3ccccc3)CC2)cnn1-c1cccc(Cl)c1 |  |  |  | 
91.9 nM | 0.2 µg/mL (≈ 0.368 µM) | 0.78 µg/mL (≈ 1.43 µM) |  |  | Nc1ccc(CS(=O)(=O)N2CCN(c3cnn(-c4cccc(Cl)c4)c(=O)c3OC3CCCC3)CC2)cc1 |  |  |  | 

Further lines, the molecule ahead of its results:

SMILES | IC50 (Beta-1,3-glucan synthase) | MIC (Nakaseomyces glabratus) | MIC (Candida albicans [1]) | AUC(0-t) at 6 h [2] | Cmax [4] | minimal effective concentration (Aspergillus fumigatus [3]) | Activity (Candida albicans [5]) | Activity (Candida albicans [6]) | Activity (Aspergillus fumigatus [7])
O=c1c(OCC2(CF)CC2)c(N2CCN(S(=O)(=O)Cc3ccccc3)CC2)cnn1-c1cccc(Cl)c1 | 54.8 nM | < 0.02 µg/mL | 0.2 µg/mL (≈ 0.366 µM) |  |  |  |  |  | 
O=c1c(OCCc2ccccn2)c(N2CCN(S(=O)(=O)Cc3ccccc3)CC2)cnn1-c1cccc(Cl)c1 | 1060 nM | 0.39 µg/mL (≈ 0.689 µM) | 6.25 µg/mL (≈ 11 µM) |  |  |  |  |  | 
CC(C)(O)CCOc1c(N2CCN(S(=O)(=O)Cc3ccccc3)CC2)cnn(-c2cc(F)cc(F)c2)c1=O | 565 nM | 0.78 µg/mL (≈ 1.42 µM) | 25 µg/mL (≈ 45.6 µM) |  |  |  |  |  | 
O=c1c(OC2CCCC2)c(N2CCN(S(=O)(=O)Cc3ccccc3)CC2)cnn1-c1cc(F)cc(F)c1 | 56.5 nM | 0.4 µg/mL (≈ 0.754 µM) | 0.39 µg/mL (≈ 0.735 µM) |  |  |  |  |  | 
O=c1c(OC2CCCC2)c(N2CCN(S(=O)(=O)Cc3cc(C(F)(F)F)cc(C(F)(F)F)c3)CC2)cnn1-c1cccc(Cl)c1 | > 226000 nM | > 50 µg/mL | > 50 µg/mL |  |  |  |  |  | 
CC1(COc2c(N3CCN(S(=O)(=O)Cc4ccccc4)CC3)cnn(-c3cccc(Cl)c3)c2=O)CC1 | 56.7 nM | < 0.02 µg/mL | 0.1 µg/mL (≈ 0.189 µM) |  |  |  |  |  | 
CC(C)c1cc(CS(=O)(=O)N2CCN(c3cnn(-c4cccc(Cl)c4)c(=O)c3OCC3(C)CC3)CC2)ccc1N | 631 nM | 16.7 µg/mL (≈ 28.5 µM) | > 33 µg/mL | 2100 ng·h/mL | 700 ng/mL | > 33 µg/mL |  |  | 
O=c1c(OC2CCc3cccnc32)c(N2CCN(S(=O)(=O)Cc3ccccc3)CC2)cnn1-c1cccc(Cl)c1 (stereo not drawn) | 1380 nM | 0.78 µg/mL (≈ 1.35 µM) | 12.5 µg/mL (≈ 21.6 µM) |  |  |  |  |  | 
CC1(COc2c(N3CCN(S(=O)(=O)Cc4ccc(N)c(C(F)(F)F)c4)CC3)cnn(-c3cccc(Cl)c3)c2=O)CC1 | 637 nM | 0.52 µg/mL (≈ 0.85 µM) | > 33 µg/mL | 640 ng·h/mL | 440 ng/mL | > 33 µg/mL |  |  | 
Cc1cc(CS(=O)(=O)N2CCN(c3cnn(-c4cccc(Cl)c4)c(=O)c3OCC3(C)CC3)CC2)ccc1N |  |  |  |  |  |  | Active | Active | Active
Nc1ccc(CS(=O)(=O)N2CCN(c3cnn(-c4cc(F)cc(F)c4)c(=O)c3OC3CCCC3)CC2)cc1 | 110 nM | 0.26 µg/mL (≈ 0.477 µM) | 1.04 µg/mL (≈ 1.91 µM) | 8100 ng·h/mL |  |  |  |  | 
CC1(COc2c(N3CCN(S(=O)(=O)Cc4ccc(N)c(Cl)c4)CC3)cnn(-c3cc(F)cc(F)c3)c2=O)CC1 | 69 nM | < 0.02 µg/mL | 0.13 µg/mL (≈ 0.224 µM) | 1100 ng·h/mL | 330 ng/mL | 0.52 µg/mL |  |  | 
CC1(COc2c(N3CCN(S(=O)(=O)Cc4cccnc4N)CC3)cnn(-c3cccc(Cl)c3)c2=O)CC1 | 239 nM | 0.06 µg/mL (≈ 0.11 µM) | 2.08 µg/mL (≈ 3.82 µM) | 5200 ng·h/mL | 1700 ng/mL | 8.4 µg/mL |  |  | 
